Marks after values point to notes of the source that are not given here.
System: left atrium of the pig
Test: Refractory period in anaesthetized pigs (AERP, left atrium)
Format: in vivo
Conditions: for Increase after Example 1 in ms: infusion 3 mg/kg/h, vs. control; for Effect on the refractory period (in words): single substances, Example 1 or 5 after 1 h infusion of 3 mg/kg/h
Description: Investigation of the refractory period in anaesthetized pigs
The investigations were carried out in the anaesthetised pig as described by Knobloch et al. (Knobloch K., Brendel J., Peukert S., Rosenstein B., Busch A.-E., Wirth K.-J., “Electrophysiological and antiarrhythmic effects of the novel IKUR channel blockers, S9947 and S20951, on the left vs. right pig atrium in vivo in comparison with the IKr blockers dofetilide, azimilide, d, I-sotalol and ibutilide”, Naunyn-Schmiedeberg's Arch Pharmacol 2002, 366: 482-487). The action of beta-blockers and IKUR blockers on the refractory period of the left atrium was investigated. First, the action of the individual substances was tested, then the action of the combination of both individual substances.
Male pigs of native German breed of age 2-3 months and weight 23-30 kg were used.
The pigs were premedicated with 3 mL of Rompun® 2% ([…] 23.3 mg/mL=3 mg/kg; injected intramuscularly) and 6 mL of Hostaket® (ketamine 115 mg/mL=20 mg/kg; injected intramuscularly). Anesthesia was induced using an intravenous bolus injection of 5 mL of Narcoren® (pentobarbital 160 mg/mL=25-30 mg/kg; i.v.) and continuously supplied intravenously by means of a pentobarbital perfusor at 12-17 mg/kg/h. After tracheotomy and intubation, the animals were ventilated with oxygen by means of a respirator. A left-lateral thoracotomy was carried out in the fifth intercostal space. The lungs were retracted using sutures, the pericardium was opened and held using sutures so that the heart rocked in this. The tip of a MAP Pacing™ electrophysiology catheter (EP Technologies, Model 1675, Boston Scientific Corporation, 92257 La Garenne-Colombes Cedex, France) were then placed on the free wall of the left atrium in a right-angled position and fixed to the left atrium under constant pressure in a stand. The electrical stimulation was carried out using an external heart stimulator from Biotronik (UHS 20, Universal heart stimulator, Biotronik GmbH, 12359 Berlin, Germany).
Measurement of the atrial effective refractory period (AERP): The electrical atrial response to the external pacemaker stimulation was visualized by means of a mono phasic action potential (MAP), which was derived from the left atrium by means of the electrophysiology catheter. A conditioning stimulation cycle of 10 base intervals (S1) in a double stimulation amplitude followed a diastolic, prematurely coupled extrastimulus (S2, 1 ms pulse duration, 200 ms refractory period), which originated during a 5 ms decrement of a coupling interval, which was 30 ms above the expected effective refractory period (AERP). The 5 mS decrement in the coupling interval of the extrastimulus ran until the atrium no longer produced any response in the form of an action potential. The longest coupling interval which was no longer able to induce any atrial action potential was used as the effective refractory period. The refractory period was in each case investigated at three basal cycle length, 240, 300 and 400 ms).
Experimental groups: The sole action of atenolol (bolus administration of 1 mg/kg) on the refractory period was investigated in a separate group of pigs (n=5).

[1] = basal cycle length 240 ms, atenolol 1 mg/kg bolus i.v., n = 5
[2] = basal cycle length 300 ms, atenolol 1 mg/kg bolus i.v., n = 5
[3] = basal cycle length 400 ms, atenolol 1 mg/kg bolus i.v., n = 5

CC(C)NCC(O)COc1ccc(CC(N)=O)cc1 (centres unmarked) [Atenolol, atenolol, reference compound]
Increase in ms of refractory period vs. control [1]: 25* ms
Refractory period, mean value [1]: 136 milliseconds
Increase in ms of refractory period vs. control [2]: 21* ms
Refractory period, mean value [2]: 129 milliseconds
Increase in ms of refractory period vs. control [3]: 11* ms
Refractory period, mean value [3]: 129 milliseconds

COc1ccc(CC(=O)NCc2ccccc2-c2ccccc2C(=O)NCCc2cccnc2)cc1 [Example 1, 2′-{[2-(4-Methoxyphenyl)acetylamino]methyl}biphenyl-2-carboxylic acid (2-pyridin-3-ylethyl)amide]
Refractory period, mean value (basal cycle length 240 ms, Example 1 infused 3 mg/kg/h, after 1 h atenolol 1 mg/kg bolus, n = 6): 136 milliseconds
Increase after Example 1 in ms (basal cycle length 240 ms, n = 6): 35^# ms
Refractory period, mean value (basal cycle length 300 ms, Example 1 infused 3 mg/kg/h, after 1 h atenolol 1 mg/kg bolus, n = 6): 149.5 milliseconds
Increase after Example 1 in ms (basal cycle length 300 ms, n = 6): 40.7^# ms
Refractory period, mean value (basal cycle length 400 ms, Example 1 infused 3 mg/kg/h, after 1 h atenolol 1 mg/kg bolus, n = 6): 166.2 milliseconds
Increase after Example 1 in ms (basal cycle length 400 ms, n = 6): 52.3^# ms
Effect on the refractory period (in words): increased to a stable level

CCCCS(=O)(=O)Nc1ccccc1C(=O)N[C@H](CC)c1ccc(OC)nc1 [Example 5, 2-(Butyl-1-sulfonylamino)-N-[1(R)-(6-methoxypyridin-3-yl)-propyl]benzamide]
Effect on the refractory period (in words): increased to a stable level

— patent publication US20050054673A1, “Combination of phenylcarboxylic acid amides with beta-adrenoreceptor blockers and their use for the treatment of atrial arrhythmias” (Aventis Pharma Deutschland GmbH, priority 2003, published 2005)
